Reference: publication PMC5007513, “Discovery of new diketopiperazines inhibiting Burkholderia cenocepacia quorum sensing in vitro and in vivo” (Scientific Reports, 2016)

Legend:
HeLa cells = assay: Mammalian cell viability assay; type: cell-based, Human; settings: for cell death in microphotographs: 72 h
Protocol: Human cervical carcinoma-derived HeLa cells were maintained in routine culture with weekly splitting. […] All reagents were purchased from Life Technologies. Twenty-four hours before drug treatment, cells were trypsinized, resuspended in medium and counted on a Z2 Beckman Coulter counter (Beckman Coulter) in order to obtain a confluent 12-wells plate. […] Cell viability data were derived from two independent experiments and were normalized to NT sample at 24 h. NT samples were subjected only to DMSO solvent. Microphotographs were obtained through an inverted microscope (Nikon) equipped with phase contrast and dark field illumination.

C. elegans = assay: Survival of uninfected C. elegans treated with the compounds; settings: no infection
[1] = tested on: Burkholderia mallei AHL-synthase; settings: cited from earlier work

O=C1C=CC(=O)C(C2NC(=O)C(Cc3ccccc3)NC2=O)=C1 (stereo not shown) [8b]
cell viability reduction (HeLa cells; HeLa, 50 μM, 48 h): approximately 50% | reduction in cell viability (HeLa cells; HeLa, 100 μM, 24 h): ~20% | cell death in microphotographs (HeLa cells; HeLa, 50 and 100 μM): confirmed cell death | C. elegans survival (C. elegans; 1 μM, 24 h): 98 ± 5% | C. elegans survival (C. elegans; 1 μM, 48 h): 97 ± 6% | C. elegans survival (C. elegans; 5 μM, 24 h): 97 ± 7% | C. elegans survival (C. elegans; 5 μM, 48 h): 95 ± 7% | C. elegans survival (C. elegans; 10 μM, 24 h): 99 ± 2% | C. elegans survival (C. elegans; 10 μM, 48 h): 95 ± 10% | C. elegans survival (C. elegans; 25 μM, 24 h): 98 ± 5% | C. elegans survival (C. elegans; 25 μM, 48 h): 96 ± 5%

O=C1CNC(=O)C(c2cc(OCc3ccccc3)ccc2OCc2ccccc2)N1 (stereo not shown) [6a]
significant effects (p < 0.05) on cell growth (HeLa cells; HeLa, 10, 25, 50 and 100 μM, 24 h and 48 h): observed only after 48 h treatment at a concentration of 100 μM | cell death in microphotographs (HeLa cells; HeLa): did not induce cell death | C. elegans survival (C. elegans; 1 μM, 24 h): 98 ± 6% | C. elegans survival (C. elegans; 1 μM, 48 h): 91 ± 12% | C. elegans survival (C. elegans; 5 μM, 24 h): 99 ± 2% | C. elegans survival (C. elegans; 5 μM, 48 h): 98 ± 4% | C. elegans survival (C. elegans; 10 μM, 24 h): 91 ± 8% | C. elegans survival (C. elegans; 10 μM, 48 h): 86 ± 10% | C. elegans survival (C. elegans; 25 μM, 24 h): 91 ± 4% | C. elegans survival (C. elegans; 25 μM, 48 h): 91 ± 6%

CN1CCN(C(c2ccccn2)c2c(-c3ccccc3)n(O)c3ccccc23)CC1 (stereo not shown) [compound 1 from Christensen et al., reference compound]
activity against AHL-synthase [1]: very active
